According to US9512420B2, “Use of N-acetylneuraminic acid aldolase in catalytic synthesis of N-acetylneuraminic acid” (Nanjing University of Technology, priority 2013, dated 2016):

Legend:
[1] = target: CgNal (Corynebacterium glutamicum, UniProt Q8NMD2); assay: Effects of metal ions and surfactant on the CgNal activity; type: biochemical, Corynebacterium glutamicum ATCC 13032; conditions: for effect on reaction of CgNal in the decomposing Neu5Ac direction / effect on reaction of CgNal in the synthesizing Neu5Ac direction: pH 7.5; for effect on superiority of Neu5Ac synthesis over Neu5Ac decomposition / overall effect on CgNal enzyme activity: pH 8.5
[2] = substrate: CC(=O)C(=O)O; assay: purified protein, by the assay type; conditions: substrate of CgNal, co-substrate fixed at 100 mM for ManNAc and pyruvic acid, 37.0 °C
[3] = substrate: CC(=O)N[C@@H]1C(O)O[C@H](CO)[C@@H](O)[C@@H]1O; assay: purified protein, by the assay type; conditions: substrate of CgNal, co-substrate fixed at 100 mM for ManNAc and pyruvic acid, 37.0 °C
[4] = substrate: CC(=O)N[C@H]1[C@H]([C@H](O)[C@H](O)CO)OC(O)(C(=O)O)C[C@@H]1O; assay: purified protein, by the assay type; conditions: substrate of CgNal, co-substrate fixed at 100 mM for ManNAc and pyruvic acid, 37.0 °C

Molecule: CoCl2
- effect on reaction of CgNal in the decomposing Neu5Ac direction [1]: inhibited
- effect on reaction of CgNal in the synthesizing Neu5Ac direction [1]: promoted

Molecule: ZnCl2
- effect on reaction of CgNal in the decomposing Neu5Ac direction [1]: inhibited
- effect on reaction of CgNal in the synthesizing Neu5Ac direction [1]: promoted
- effect on superiority of Neu5Ac synthesis over Neu5Ac decomposition [1]: promoted
- overall effect on CgNal enzyme activity [1]: decreased the enzyme activity

Molecule: NiSO4
- effect on reaction of CgNal in the decomposing Neu5Ac direction [1]: inhibited
- effect on reaction of CgNal in the synthesizing Neu5Ac direction [1]: promoted

Molecule: CCCCCCCCCCCCOS(=O)(=O)[O-].[Na+] [SDS]
- effect on reaction of CgNal in the decomposing Neu5Ac direction ([1]; 5 mM additive): inhibited
- effect on reaction of CgNal in the synthesizing Neu5Ac direction ([1]; 5 mM additive): promoted
- effect on superiority of Neu5Ac synthesis over Neu5Ac decomposition ([1]; 5 mM additive): promoted
- overall effect on CgNal enzyme activity ([1]; 5 mM additive): decreased the enzyme activity

Molecule: CCCCCCCCCCCCCCCC[N+](C)(C)C.[Br-] [CTAB]
- effect on reaction of CgNal in the decomposing Neu5Ac direction [1]: inhibited
- overall effect on CgNal enzyme activity [1]: decreased the enzyme activity

B1: CgNal (Corynebacterium glutamicum ATCC 13032) (protein)
chain: MASATFTGVIPPVMTPLHADGSVDVESLRKLVDHLINGGVDGLFALGSSGEAAFLTRAQRKLALTTIIEHTAGRVPVTAGVIETTTARVIELVEDALEAGAEGLVATAPFYTRTHDVEIEEHFRKIHAAAPELPLFAYNIPVSVHSNLNPVMLLTLAKDGVLAGTKDSSGNDGAIRSLIEARDDAGLTEQFKILTGSETTVDFAYLAGADGVVPGLGNVDPAAYAALAKLCLDGKWAEAAALQKRINHLFHIVFVGDTSHMSGSSAGLGGFKTALAHLGIIESNAMAVPHQSLSDEETARIHAIVDEFLYTA
- Km ([2]; other: pH 7.5, pH 7.5): 14.7 mM
- Vmax ([2]; other: pH 7.5, pH 7.5): 10.98 U/mg
- Km ([2]; other: pH 8.5, pH 8.5): 72.4 mM
- Vmax ([2]; other: pH 8.5, pH 8.5): 76.64 U/mg
- Km ([3]; other: pH 7.5, pH 7.5): 53.3 mM
- Vmax ([3]; other: pH 7.5, pH 7.5): 10.2 U/mg
- Km ([3]; other: pH 8.5, pH 8.5): 92.1 mM
- Vmax ([3]; other: pH 8.5, pH 8.5): 73.2 U/mg
- Km ([4]; other: pH 7.5, pH 7.5): 33.5 mM
- Vmax ([4]; other: pH 7.5, pH 7.5): 16.74 U/mg
- Km ([4]; other: pH 8.5, pH 8.5): 87.7 mM
- Vmax ([4]; other: pH 8.5, pH 8.5): 79.6 U/mg
